Paper PMC7933930, “Development of a small molecule that corrects misfolding and increases secretion of Z α1‐antitrypsin” (EMBO Molecular Medicine, 2021)

Legend:
Serotonin 5HT2A = Serotonin 5HT2A (Homo sapiens, UniProt P28223); assay: Off‐target panel: Serotonin 5HT2A; format: cell-based
Protocol: (§1) GSK716 selectivity and PK properties were profiled in order to investigate the suitability of GSK716 for progression into in vivo studies and the potential for taking it forward as a clinical candidate for testing in humans. Since GSK716 results in loss of inhibitory activity of α1‐antitrypsin, the effect of the compound was assessed on other closely related serpins. […] Furthermore, there were no off‐target effects in a panel of assays considered predictive of known safety liabilities that precluded further development of GSK716 (Table EV1).

[1] = system: Z α1‐antitrypsin polymers; assay: Liver polymer load in Z α1‐antitrypsin transgenic mice (2C1 immunohistochemistry); format: in vivo, mouse; conditions: 100 mg/kg three times a day for 20 days, versus vehicle
Protocol: Since GSK716 blocks polymer formation in cells, we explored the effect of dosing GSK716 on liver polymer levels. […] GSK716 was dosed at 100 mg/kg three times a day for 20 days. […] Liver polymer levels were investigated by staining with 2C1 anti‐polymer monoclonal antibody and were scored blind by a pathologist or by quantification using an algorithm to measure all areas of positive staining (Fig EV1). There was no difference observed in total liver polymer load when assessed by manual or quantitative scoring (Fig 6B and C). There was no significant fibrosis in any of the liver sections. Intrahepatic α1‐antitrypsin was also assessed by ELISA. […] Treatment with GSK716 increased the monomer measured in liver homogenate by approx. fourfold in keeping with the changes seen in blood.
Formalin‐fixed, paraffin‐embedded livers from all mice were sectioned and stained with haematoxylin and eosin (H&E) and periodic acid Schiff (PAS) with diastase to examine tissue quality and the presence of diastase‐resistant polymer inclusions, respectively. […] Representative sections of liver from each mouse were blindly evaluated by a Board‐Certified Veterinary Pathologist and ranked in order of polymer content. A semi‐automated image analysis solution was developed to quantify total polymer content (Fig EV1). […]

M α1‐antitrypsin = molecular target: T1, M α1‐antitrypsin (Homo sapiens, UniProt P01009); assay: Stoichiometry of inhibition against chymotrypsin, M α1‐antitrypsin; format: biochemical; conditions: M α1‐antitrypsin pre‐incubated with GSK716 (50µM), read-out: loss of protease inhibitory activity
T1 construct: purified from the plasma of M (wild‐type) and Z α1‐antitrypsin homozygotes; from tissue; host or cells: human plasma of M (wild-type) homozygotes
T1 sequence (P01009 25-418): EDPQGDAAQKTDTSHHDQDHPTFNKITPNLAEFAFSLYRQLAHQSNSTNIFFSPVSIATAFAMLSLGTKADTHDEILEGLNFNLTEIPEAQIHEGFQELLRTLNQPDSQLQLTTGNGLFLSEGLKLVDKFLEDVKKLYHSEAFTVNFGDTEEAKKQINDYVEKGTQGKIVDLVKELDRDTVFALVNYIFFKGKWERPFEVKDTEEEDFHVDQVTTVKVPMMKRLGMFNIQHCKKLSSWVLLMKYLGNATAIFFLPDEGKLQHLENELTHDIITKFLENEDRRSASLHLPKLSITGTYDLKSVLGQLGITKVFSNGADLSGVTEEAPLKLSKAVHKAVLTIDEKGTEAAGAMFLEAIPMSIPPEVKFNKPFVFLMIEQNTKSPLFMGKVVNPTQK
Protocol: Mutations that interfere with the opening of β‐sheet A or that perturb its interaction with the N‐terminal portion of the reactive centre loop alter the ability of serpins to inhibit target proteases (Hood et al, 1994; Irving et al, 2014). The stoichiometry of inhibition (SI) was determined for M α1‐antitrypsin and Z α1‐antitrypsin in discontinuous experiments against a model target protease, chymotrypsin. The pre‐incubation of both variants with GSK716 led to a > 98% loss of protease inhibitory activity (Fig 5A).
Figure 5 The effect of GSK716 on serpin inhibitory activity • α1‐Antitrypsin was incubated at varying molar ratios with the model protease bovine α‐chymotrypsin, and the residual protease activity determined. […] The position of covalent α1‐antitrypsin‐chymotrypsin complex (cpx), native (nat) and cleaved (clv) is shown. • The inhibitory activity of α1‐antichymotrypsin against chymotrypsin (ach + chym), neuroserpin against trypsin (neus + tryp), and antithrombin against thrombin (atiii + thrombin) was determined in the presence and absence of GSK716. […]
The native state stability of α1‐antitrypsin on addition of compounds was investigated by thermal denaturation in the presence of a 5X concentration of SYPRO Orange dye solution (Life Technologies) (Nettleship et al, 2008). Resistance to heat‐induced polymerisation was determined using an end‐point constant‐temperature assay. […]

[2] = molecular target: polymers of Z α1‐antitrypsin (Homo sapiens, UniProt P01009, E366K); assay: Binding to Z α1‐antitrypsin polymers (fluorescence polarisation)
Chain of polymers of Z α1‐antitrypsin (P01009 25-418 E366K): as the sequence (P01009 25-418) above, with E342K counted along it
Protocol: Figure 1 Characteristics of the lead series of chiral hydroxy‐carboxamides identified from the ELT screen • The structure of GSK425, identified from the ELT screen, and the derived compound GSK716 obtained through a structure‐based design pipeline. • The degree of polymerisation of Z α1‐antitrypsin after 72 h at 37°C, as determined by an end‐point immunoassay using the 2C1 monoclonal antibody, in varying concentrations of compound (shown in panel A). […] Data presented as mean ± SD. • The compound bound to monomeric but not polymeric Z α1‐antitrypsin (Z α1‐AT) as reported by fluorescence polarisation of an Alexa‐488‐labelled variant of GSK716. • Representative curves reporting the interaction of different concentrations of GSK716 with Z α1‐antitrypsin based on changes in intrinsic tryptophan fluorescence.
Kinetic parameters of GSK716 binding to M, Z, S (Glu264Val) and Baghdad (Ala336Pro) (Haq et al, 2016) α1‐antitrypsin were measured by detecting intrinsic tryptophan fluorescence of the protein (excitation at 280 nm and detection of emission at 320 nm) on a stopped flow apparatus (Applied Photophysics) (Kim & Yu, 1996; Dafforn et al, 1999). […]

Cannabinoid CB1 = Cannabinoid CB1 (Homo sapiens, UniProt P21554); assay: Off‐target panel: Cannabinoid CB1 (DRX); format: cell-based
Chain of Cannabinoid CB1 (P21554 whole entry): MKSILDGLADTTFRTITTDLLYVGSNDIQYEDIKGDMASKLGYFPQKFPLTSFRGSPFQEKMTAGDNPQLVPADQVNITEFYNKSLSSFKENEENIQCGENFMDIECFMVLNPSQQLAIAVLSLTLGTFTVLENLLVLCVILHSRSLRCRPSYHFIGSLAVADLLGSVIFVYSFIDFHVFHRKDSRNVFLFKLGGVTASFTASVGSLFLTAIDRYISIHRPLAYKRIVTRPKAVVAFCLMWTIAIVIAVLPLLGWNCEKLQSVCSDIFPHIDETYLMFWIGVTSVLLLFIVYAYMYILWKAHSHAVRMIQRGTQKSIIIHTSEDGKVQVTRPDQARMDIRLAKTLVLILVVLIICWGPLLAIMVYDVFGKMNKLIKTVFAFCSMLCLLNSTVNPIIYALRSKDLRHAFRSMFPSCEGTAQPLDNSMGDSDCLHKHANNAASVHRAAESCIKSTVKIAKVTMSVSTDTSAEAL
Protocol: as §1

PXR (human) = PXR (human) (Homo sapiens, UniProt O75469); assay: Off‐target panel: PXR (human); format: cell-based; conditions: Activator, read-out: Mean (PXC50) (converted)
Chain of PXR (human) (O75469 whole entry): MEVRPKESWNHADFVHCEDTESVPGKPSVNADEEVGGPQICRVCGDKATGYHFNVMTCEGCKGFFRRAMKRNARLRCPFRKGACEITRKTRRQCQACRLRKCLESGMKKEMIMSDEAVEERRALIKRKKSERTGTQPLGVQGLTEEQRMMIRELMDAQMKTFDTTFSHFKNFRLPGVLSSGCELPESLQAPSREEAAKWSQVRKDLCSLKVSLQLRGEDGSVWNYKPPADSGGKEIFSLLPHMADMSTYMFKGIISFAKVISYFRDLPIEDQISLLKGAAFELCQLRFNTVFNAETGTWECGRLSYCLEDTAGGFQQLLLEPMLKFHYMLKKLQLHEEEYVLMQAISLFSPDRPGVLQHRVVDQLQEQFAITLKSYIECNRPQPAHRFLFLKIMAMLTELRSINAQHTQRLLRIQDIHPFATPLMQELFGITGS
Protocol: as §1

Dopamine D2 (DRD2S) = Dopamine D2 (DRD2S) (Homo sapiens, UniProt P14416); assay: Off‐target panel: Dopamine D2 (DRD2S) (DRX); format: cell-based
Chain of Dopamine D2 (DRD2S) (P14416 1-414 isoform P14416-2): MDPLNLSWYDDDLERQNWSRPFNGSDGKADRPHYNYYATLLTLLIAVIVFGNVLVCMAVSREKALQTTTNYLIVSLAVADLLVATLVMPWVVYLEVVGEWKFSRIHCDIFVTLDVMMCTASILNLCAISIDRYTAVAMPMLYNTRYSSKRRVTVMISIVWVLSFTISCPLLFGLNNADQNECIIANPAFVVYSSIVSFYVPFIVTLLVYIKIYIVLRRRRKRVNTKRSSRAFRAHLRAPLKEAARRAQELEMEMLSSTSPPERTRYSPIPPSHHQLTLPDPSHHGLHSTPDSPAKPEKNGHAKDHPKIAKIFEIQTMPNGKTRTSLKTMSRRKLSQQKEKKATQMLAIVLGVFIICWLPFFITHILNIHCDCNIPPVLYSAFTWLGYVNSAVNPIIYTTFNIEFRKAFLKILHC
Protocol: as §1

NK1 (TACR1) = NK1 (TACR1) (Homo sapiens, UniProt P25103); assay: Off‐target panel: NK1 (TACR1) (DRX); format: cell-based; conditions: Antagonist, read-out: Mean (PXC50)
Chain of NK1 (TACR1) (P25103 whole entry, species assumed): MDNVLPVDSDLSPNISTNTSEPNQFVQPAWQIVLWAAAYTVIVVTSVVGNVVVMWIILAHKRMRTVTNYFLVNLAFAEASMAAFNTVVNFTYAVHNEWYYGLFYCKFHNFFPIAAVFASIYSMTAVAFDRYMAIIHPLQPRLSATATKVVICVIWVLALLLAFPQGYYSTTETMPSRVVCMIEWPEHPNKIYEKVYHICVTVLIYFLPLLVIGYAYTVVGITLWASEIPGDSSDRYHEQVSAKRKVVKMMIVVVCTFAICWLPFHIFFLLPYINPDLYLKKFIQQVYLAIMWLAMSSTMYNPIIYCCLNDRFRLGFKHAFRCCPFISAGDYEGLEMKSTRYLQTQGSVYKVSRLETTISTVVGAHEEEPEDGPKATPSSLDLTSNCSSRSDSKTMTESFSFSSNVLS
Protocol: as §1

Chain of Serotonin 5HT2A (P28223 whole entry): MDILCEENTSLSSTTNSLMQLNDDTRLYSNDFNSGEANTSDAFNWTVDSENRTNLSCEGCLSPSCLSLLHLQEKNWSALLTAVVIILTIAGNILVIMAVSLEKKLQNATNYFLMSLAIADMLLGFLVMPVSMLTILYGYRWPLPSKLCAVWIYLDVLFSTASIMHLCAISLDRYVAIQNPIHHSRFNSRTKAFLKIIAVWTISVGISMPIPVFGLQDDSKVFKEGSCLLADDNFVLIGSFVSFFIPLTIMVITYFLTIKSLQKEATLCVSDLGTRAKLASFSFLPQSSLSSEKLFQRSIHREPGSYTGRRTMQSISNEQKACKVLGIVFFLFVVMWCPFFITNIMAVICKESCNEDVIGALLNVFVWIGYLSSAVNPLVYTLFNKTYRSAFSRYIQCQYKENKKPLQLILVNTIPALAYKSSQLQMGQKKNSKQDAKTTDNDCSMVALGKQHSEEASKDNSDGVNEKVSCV

`CCC[C@@H](NC(=O)c1cccc2c1CC(=O)N2)[C@@H](O)c1cccc(F)c1C` [GSK716] was tested, and the EC50 (Serotonin 5HT2A) was > 25.1 µM, the IC50 (Serotonin 5HT2A) was > 25.1 µM and the “total liver polymer load (manual or quantitative scoring of 2C1 staining)” value [1] was “no difference”. The inhibition at 50 µM (M α1‐antitrypsin) was > 98%, the “binding to polymers of Z α1‐antitrypsin” value [2] was “lack of binding” and the EC50 (Cannabinoid CB1) was > 100 µM. The EC50 (PXR (human)) was 20 µM, the EC50 (Dopamine D2 (DRD2S)) was > 100 µM and the IC50 (Dopamine D2 (DRD2S)) was > 100 µM. For the same compound, the IC50 (NK1 (TACR1)) was > 25.1 µM.
